Measurements taken from US12221494B2, “Short synthetic peptides and their uses for treating retinal degenerative diseases and/or tissue injuries” (MacKay Memorial Hospital, priority 2019, dated 2025).
Ends that are not written are not given here.

tested on: survivin mRNA; test: Real-time qPCR of survivin mRNA in C2C12 cells; assay type: cell-based, mouse; details: C2C12 cells in low serum media, 20 μM peptide, 6 h
Description: Total RNA was extracted from cells using TRIzol (Invitrogen). Synthesis of cDNA was performed with 1 μg of total RNA at 50° C. for 50 min using oligo(dT) primers and reverse transcriptase (Superscript III; Invitrogen). Briefly, quantification of cDNA was performed in the LightCycler (Roche, Mannheim, Germany) using the DNA Master SYBR Green I kit (Roche) with the following cycling conditions: initial denaturation at 95° C. for 10 min, followed by 40 cycles at 95° C. for 10 s, 60° C. for 10 s, and 72° C. for 10 s and a 5-min terminal incubation at 72° C. The data were calculated with AACt. The expression was then normalized against the expression of glyceraldehyde-3-phosphate dehydrogenase (GAPDH). The PCR primers were mouse Survivin sense, 5′-[…]-3′ (SEQ ID NO: 27), anti-sense, 5′-[…]-3′ (SEQ ID NO: 28) (accession number: NM_001012273.1; PCR product: 136 bp); mouse GAPDH sense, 5′-[…]-3′ (SEQ ID NO: 29), anti-sense, 5′-[…]-3′ (SEQ ID NO: 30) (NM_001289726.1; 149 bp). For analysis rabbit inflammatory gene expression, The PCR primers were rabbit TNF-αsense, 5′-[…]-3′ (SEQ ID NO: 31), anti-sense, 5′-[…]-3′ (SEQ ID NO: 32) (accession number: NM 001082263.1); rabbit IL-1βsense, 5′-[…]-3′(SEQ ID NO: 33), anti-sense, 5′-[…]-3′ (SEQ ID NO: 34) (NM 001082201.1); rabbit GAPDH sense, 5′-[…]-3′ (SEQ ID NO: 35), anti-sense, 5′-[…]-3′ (SEQ ID NO: 36) (accession number:NM 001082253.1). The cycle threshold (Ct) values of the PCR product and a GAPDH (Glyceraldehyde 3-phosphate dehydrogenase) control mRNA were used to calculate relative quantities of mRNA.
Similar to the approach in Example 1.2.1, the expression level of survivin mRNA in C2C12 cells was used as an indicator for the function of the 6-mer variants in Tables 3 to 5. Briefly, C2C12 cells in low serum media were treated with 20 μM the 6-mer variants for 6 h. […] The results also confirmed that alanine substation at the glutamic acid (E) residues would severely impair the 6-mer activity.

| Compound | survivin mRNA induction, in words | survivin mRNA induction compared to solvent control |
| --- | --- | --- |
| NH2-Ser-(D-Leu)-Gly-Ala-Glu-Gln-COOH (SLGAEQ; HELM PEPTIDE1{S.[dL].G.A.E.Q}$$$$V2.0; SMILES CC(C)C[C@@H](NC(=O)[C@@H](N)CO)C(=O)NCC(=O)N[C@@H](C)C(=O)N[C@@H](CCC(=O)O)C(=O)N[C@@H](CCC(N)=O)C(=O)O) [6-mer dL] | hamper the survivin gene induction activity significantly | – |
| NH2-Ser-Ala-Gly-Ala-Glu-Gln-COOH (SAGAEQ; not fully specified (N-terminus, C-terminus); printed as NH2-Ser-Ala-Gly-Ala-Glu-Gln-COOH) [6-mer La] | – | 1.5 fold |
| NH2-Ser-Leu-Ala-Ala-Glu-Gln-COOH (SLAAEQ; not fully specified (N-terminus, C-terminus); printed as NH2-Ser-Leu-Ala-Ala-Glu-Gln-COOH) [6-mer Ga] | – | 1.6 fold |
| NH2-Ser-Leu-Asn-Ala-Glu-Gln-COOH (SLNAEQ; not fully specified (N-terminus, C-terminus); printed as NH2-Ser-Leu-Asn-Ala-Glu-Gln-COOH) [6-mer Gn] | – | 1.5 fold |
| NH2-Ser-Leu-Gly-Ala-(D-Glu)-Gln-COOH (SLGAEQ; HELM PEPTIDE1{S.L.G.A.[dE].Q}$$$$V2.0; SMILES CC(C)C[C@H](NC(=O)[C@@H](N)CO)C(=O)NCC(=O)N[C@@H](C)C(=O)N[C@H](CCC(=O)O)C(=O)N[C@@H](CCC(N)=O)C(=O)O) [6-mer dE] | moderate induction on survivin mRNA level | – |
| NH2-Ser-Leu-Gly-Ala-Asp-Gln-COOH (SLGADQ; not fully specified (N-terminus, C-terminus); printed as NH2-Ser-Leu-Gly-Ala-Asp-Gln-COOH) [6-mer Ed] | severely impaired the survivin mRNA induction | – |
| NH2-Ser-Leu-Gly-Ala-Glu-(D-Gln)-COOH (SLGAEQ; HELM PEPTIDE1{S.L.G.A.E.[dQ]}$$$$V2.0; SMILES CC(C)C[C@H](NC(=O)[C@@H](N)CO)C(=O)NCC(=O)N[C@@H](C)C(=O)N[C@@H](CCC(=O)O)C(=O)N[C@H](CCC(N)=O)C(=O)O) [6-mer dQ] | hamper the survivin gene induction activity significantly | – |
| NH2-Ser-Leu-Gly-Ala-Glu-Ala-COOH (SLGAEA; not fully specified (N-terminus, C-terminus); printed as NH2-Ser-Leu-Gly-Ala-Glu-Ala-COOH) [6-mer Qa] | – | 1.6 fold |
| NH2-Ser-Leu-Gly-Glu-Glu-Gln-COOH (SLGEEQ; not fully specified (N-terminus, C-terminus); printed as NH2-Ser-Leu-Gly-Glu-Glu-Gln-COOH) [6-mer Ae] | – | 1.5 fold |
| NH2-Ser-Leu-Gly-Gly-Glu-Gln-COOH (SLGGEQ; not fully specified (N-terminus, C-terminus); printed as NH2-Ser-Leu-Gly-Gly-Glu-Gln-COOH) [6-mer Ag] | – | 1.5 fold |
| NH2-Ser-Leu-Gly-Ile-Glu-Gln-COOH (SLGIEQ; not fully specified (N-terminus, C-terminus); printed as NH2-Ser-Leu-Gly-Ile-Glu-Gln-COOH) [6-mer Ai] | severely impaired the survivin mRNA induction | – |
| NH2-Ser-Leu-Gly-Ser-Glu-Gln-COOH (SLGSEQ; not fully specified (N-terminus, C-terminus); printed as NH2-Ser-Leu-Gly-Ser-Glu-Gln-COOH) [6-mer As] | severely impaired the survivin mRNA induction | – |

same assay, conditions: C2C12 cells; 2.6-fold without inhibitor

| Compound | survivin mRNA expression induced by the 6-mer dS in cells pretreated with STAT3 inhibitor |
| --- | --- |
| O=[N+]([O-])c1ccc2c(c1)S(=O)(=O)C=C2 [STAT3 inhibitor V, reference compound] | 1.3 fold |
